Where two headings read alike, the source gives them in different places.
Experiments:
[1] = target: T1, human RNAseH1 (Homo sapiens, UniProt O60930); experiment: Oligonucleotide-directed RNAseH assay, recombinant human RNAseH1; format: biochemical; details: class by concentration giving inhibition (10, 20, 60 μM)
T1 construct: hexahistidine (N); made in house; host or cells: E. coli BL21 codon+
T1 sequence (O60930 1-286): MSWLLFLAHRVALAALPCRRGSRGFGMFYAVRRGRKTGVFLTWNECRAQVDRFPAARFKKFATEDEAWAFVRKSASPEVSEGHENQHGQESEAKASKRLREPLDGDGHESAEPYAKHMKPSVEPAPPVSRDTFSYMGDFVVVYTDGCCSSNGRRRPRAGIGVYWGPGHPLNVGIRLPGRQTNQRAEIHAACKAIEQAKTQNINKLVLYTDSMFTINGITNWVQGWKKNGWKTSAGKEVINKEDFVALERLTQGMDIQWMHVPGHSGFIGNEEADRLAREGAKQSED
Description: (§1) For the oligonucleotide-directed RNAseH cleavage assay (Gong et al., 2001), 6 μl protein extract (typical protein concentration 2.8 mg/ml) was mixed with 0.5 μg internally ^32P-labeled DRF+ RNA (nucleotides 2401-2605 of the duck HBV genome plus 60 nucleotides of flanking sequences from pBluescript) and 3 μg oligonucleotide D2507- or its corresponding negative control D2526+ on ice in 20 μl under the conditions in Table 1. Some reactions in FIG. 5 employed oligonucleotide D2543M-Sal or its D2453+ negative control as indicated. The reactions were incubated at 42° C. for 90 min. and terminated by addition of Laemmli protein loading buffer and boiling. The samples were resolved by 12% SDS-PAGE, the gels were stained with Coomassie blue to monitor protein loading, and labeled RNA was detected by autoradiography. Candidate inhibitors were dissolved in DMSO and added at the indicated concentrations during assembly of the reactions. Control reactions lacking the compounds contained DMSO as a vehicle control. The RNAseH autoradiograms were scanned and quantified with ImageJ. The oligonucleotides were: D2526+([…]; SEQ ID NO:8), D2507-([…]; SEQ ID NO:9), D2453+([…]; SEQ ID NO:10), and D2543M-Sal ([…]; SEQ ID NO:11).
Therefore, the inventors cloned the human RNAseH1 with an N-terminal hexahistidine tag, expressed it in E. coli, and purified the protein by nickel affinity chromatography. […] This enzyme was active in the oligonucleotide-directed and fluorescent RNAseH assays (FIG. 10B and data not shown). To determine how inhibition of human RNAseH1 compared to inhibition of the HBV RNAseH, the inventor titrated the RNAaseH1 enzyme to yield similar levels of activity as the HBV enzyme, and then the inventor directly compared the ability of compounds #8-12 to inhibit human RNAseH1 and HRHPL at 10 μM. […] Therefore, it is possible to inhibit the HBV RNAseH without inhibiting human RNAseH1.
(§2) Oligonucleotide-directed RNAseH cleavage assays (Gong et al., 2001) were performed as described (Tavis et al., 2013). Briefly, HBV RNAseH extracts were mixed with a 264 nt-long internally ^32P-labeled RNA plus an excess of a complementary DNA oligonucleotide or its inverse-complement as a negative control in a final concentration of 65 mM Tris pH 8.0, 190 mM NaCl, 5 mM MgCl2, 5 mM dTT, 0.05% NP40, and 6% glycerol. βTJ was dissolved in DMSO and added at the indicated concentrations; the final concentration of DMSO in all reactions was 1%. The reactions were incubated at 42° C. for 90 min. and terminated by addition of Laemmli protein electrophoresis buffer. The samples were resolved by SDS-PAGE, labeled RNA was detected by autoradiography, the autoradiograms were scanned, and the RNA cleavage products were quantified with ImageJ (National Institutes of Health). IC50 values were calculated by non-linear regression using GraphPad Prism (GraphPad Software, Inc.).

[2] = system: HBV genotype C RNAseH; experiment: Oligonucleotide-directed RNAseH cleavage assay, HBV genotype C; format: biochemical, Hepatitis B virus; details: class by concentration giving inhibition (10, 20, 60 μM)
Description: as §1
Incremental improvements were developed in extraction of the HBV RNAseH from the bacterial cell pellets since the data were generated for Examples 1 and 2. Key among these was shifting from using a cup sonicator to a probe sonicator and reducing the duration of the sonication period from 3×60 second bursts to 3×20 second bursts. When the […] genotype C clone that had inconsistent activity under the old extraction conditions (FIG. 6C) was isolated under these conditions, it became consistently and robustly active (FIG. 16).

[3] = target: T2, HBV genotype D RNAseH (HRHPL) (Hepatitis B virus genotype D subtype ayw, UniProt P03156, INS679M); experiment: Oligonucleotide-directed RNAseH cleavage assay, HBV genotype D; format: biochemical; details: for Activity vs. HBV Biochemical vs. gtD: class by concentration giving inhibition (10, 20, 60 μM); for Residual activity at 10 uM, Genotype D: ± standard deviation, 3 to 7 replicates
T2 construct: HRHPL contains HBV genotype D (Genbank V01460) polymerase residues 684-845; made in house; host or cells: E. coli BL21 codon+

[4] = system: HBV; experiment: HBV genomic replication assays (Table 2); format: cell-based, Hepatitis B virus; details: class by active concentration
Method in brief: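 Huh7 cells transfected with HBV plasmid received compound at 10 or 50 μM, refreshed every 1-2 days. Core-particle DNA isolated 4-5 days post-transfection was analysed by Southern blot, with or without RNaseH. For the screen, replicating cells got 60, 20 or 6.7 μM, refreshed days 1-2, and plus-strand DNA was quantified on day 3 by cross-gap TaqMan PCR.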

[5] = mice and rats, doses 10 to 58 times those used in humans; cited from earlier work
[6] = system: HBV; experiment: Quantitative PCR screen of HBV plus-polarity DNA accumulation; format: cell-based, Hepatitis B virus; details: 60, 20, or 6.7 μM; DNA isolated day 3
Description: This assay was employed to screen 7 compounds for their ability to suppress HBV replication (FIG. 17). […] Fresh medium containing compound was provided on days 1 and 2, and capsid-associated HBV DNAs were isolated on day 3. HBV plus-strand DNAs were measured using the cross-gap TaqMan PCR assay.
Plus-polarity preferential quantitative TaqMan PCR for the HBV DNA was conducted employing forward primer […] […] PCR was conducted on purified HBV capsid-derived nucleic acids for 40 cycles of 95° C. for 15 sec. and 65° C. for 1 min. employing the TaqMan universal PCR master mix (Applied Biosystems). Results were standardized against serial dilutions of cloned HBV DNA. The EC50 was estimated by linear regression of the real-time PCR data.

[7] = system: rat hepatocytes; details: cited from earlier work
[8] = target: HIV-1 RNAseH (Human immunodeficiency virus type 1 group M subtype B, UniProt P04585); details: read-out: IC50 against the HIV RNAseH; cited from earlier work
[9] = system: HBV genotype H RNAseH; experiment: Oligonucleotide-directed RNAseH cleavage assay, HBV genotype H; format: biochemical, Hepatitis B virus; details: 10 μM; ± standard deviation, 3 to 7 replicates
Description: as §1, §2

[10] = target: T3, chimeric HBV:HIV RNAseH HHC1 (Hepatitis B virus genotype D subtype ayw, UniProt P03156, DELINS787-795[…]/INS679M); experiment: Oligonucleotide-directed RNAseH cleavage assay, chimeric HHC1; format: biochemical; details: 10 μM; ± standard deviation, 3 to 7 replicates
T3 construct: HHC1 is an HRHPL derivative; made in house; host or cells: E. coli BL21 codon+
Description: pCMV-HBV-LE-(CMV-HBV) is an HBV over-length genomic expression vector containing 1.2 copies of the HBV(adw2) genome (Genbank X02763.1) downstream of the CMV promoter cloned into pBS (Promega). Surface protein expression from this vector is ablated by mutating the preS and S open reading frames. pCMV-HBV(genotype D) is an analogous HBV genomic expression construct and was a gift from Dr. Shuping Tong (Brown University). For bacterial expression, codon-optimized cDNA sequences for HRHPL (genotypes A, B, C, D, and H), and noncodon-optimized sequences for HHC1 and HHC2 were cloned by gene synthesis (Genscript) between the NcoI and EcoRI sites into pTrcHis2B (Invitrogen) with a C-terminal hexahistidine tag. HRHPL contains HBV genotype D (Genbank V01460) polymerase residues 684-845. HHC1 is an HRHPL derivative in which HBV polymerase residues 800-808 were replaced with HIV residues corresponding to the RNAseH helix D ([…]; SEQ ID NO:6). HHC2 is an HRHPL derivative in which HBV polymerase residues 800-845 were replaced with HIV residues corresponding to the RNAseH helix D to the C-terminus ([…]; SEQ ID NO:7). The human RNAseH1 gene (NP_002927.2) was cloned with an N-terminal hexahistidine-tag between the BamHI and XhoI sites of pRsetB (Invitrogen) by gene synthesis.
as §1

[11] = target: HCV RNA-directed RNA polymerase (Hepatitis C virus genotype 1a, UniProt P27958); experiment: Primed homopolymeric RNA (poly-G) synthesis assay; format: biochemical; details: 10 μM
Description: FIGS. 9A-C. Specificity of anti-HBV RNAseH compounds. (FIG. 9A) Inhibition of HBV genotype D RNAseH by irrelevant compounds at 10 μM in the oligonucleotide-directed RNAseH assay. Compound #4 was employed as an example HBV RNAseH inhibitor. […] The ability of compounds #5, 6 and 8 to inhibit production of poly-G by the HCV RNA-directed RNA polymerase was measured in a primed homopolymeric RNA synthesis assay (Cao, et al., 2011. The compounds were employed at 10 μM. DMSO, vehicle control. (FIG. 9C) Dose-responsiveness of HBV RNAseH inhibition. The effects of compounds #6, 8, and 12 on the RNAseH activity of HRHPL (genotype D) were measured at concentrations ranging from 0.5 to 50 μM. The dose-response profile is plotted for compound #12.

[12] = rat hepatocytes, Nakagawa and Tayama, 1998

Compound	Activity vs. human RNAseH1 [1]	Activity vs. HBV Biochemical vs. gtC [2]	Activity vs. HBV Biochemical vs. gtD [3]	Activity vs. HBV Genomic Replication [4]	Suppression of HBV plus-polarity DNA accumulation [6]	other results
O=C1c2cccc3cccc(c23)C(=O)N1O [Compound 45]	− (− no inhibition at 60 μM)	+ (+ inhibition at 60 μM)	− (− no inhibition at 60 μM)	− (− no activity at 60 μM)	–	–
Nc1ccn([C@H]2CS[C@@H](CO)O2)c(=O)n1 [Lamivudine, 2′,3′-dideoxy-3′-thiacytidine]	–	–	–	–	–	Carcinogenicity or mutagenicity [5]: no evidence of carcinogenicity or mutagenicity
O=c1cccccc1O [Compound 53, Tropolone]	− (− no inhibition at 60 μM)	–	++ (++ inhibition at 20 μM)	− (− no activity at 60 μM)	inhibited accumulation of HBV plus-polarity DNA to lesser extents	Mitochondrial toxicity [7]: mitochondrial toxicity has been reported
Manicol [Compound 56]	− (− no inhibition at 60 μM)	+++ (+++ inhibition at 10 μM)	+++ (+++ inhibition at 10 μM)	+ (+, activity detectable at >10 μM)	inhibited accumulation of HBV plus-polarity DNA to lesser extents	IC50 [8]: 60 µM
CC(C)c1ccccc(=O)c1O [α-thuaplicin, reference compound]	–	–	–	–	–	IC50 [8]: 50 µM
CC(C)c1cccc(O)c(=O)c1 [Compound 47, beta-thujaplicin]	− (− no inhibition at 60 μM)	− (− no inhibition at 60 μM)	+++ (+++ inhibition at 10 μM)	− (− no activity at 60 μM)	did not suppress HBV plus-polarity DNA accumulation	Mitochondrial toxicity [7, 12]: mitochondrial toxicity has been reported
Cc1cc(C)c(C#N)c(=N)o1 [Compound 5]	–	–	+ (+ inhibition at 60 μM)	− (− no activity at 60 μM)	–	Residual activity at 10 uM, Genotype H [9]: 76 ± 14 Percent DMSO control; Residual activity at 10 uM, HHC1 [10]: 36 ± 6 Percent DMSO control; Residual activity at 10 uM, Genotype D [3]: 42 ± 15 Percent DMSO control; Inhibition of poly-G production by HCV RNA polymerase [11]: do not significantly inhibit
CC(C)c1ccc(O)c(=O)cc1 [Compound 48]	–	–	–	–	did not suppress HBV plus-polarity DNA accumulation	–
CCOC(=O)c1sc(NC(=O)CSc2nnc(Cc3ccccc3)o2)c(C#N)c1C [Compound 6]	–	–	+ (+ inhibition at 60 μM)	− (− no activity at 60 μM)	–	Residual activity at 10 uM, Genotype H [9]: 81 ± 24 Percent DMSO control; Residual activity at 10 uM, HHC1 [10]: 55 ± 23 Percent DMSO control; Residual activity at 10 uM, Genotype D [3]: 40 ± 16 Percent DMSO control; Inhibition ([3]; at 50 μM): 75%; Inhibition plateau ([3]; between 3 and 40 μM): 20-30%; Inhibition of poly-G production by HCV RNA polymerase [11]: do not significantly inhibit
O=c1cccccc1 [tropone, reference compound]	–	–	–	–	–	Mitochondrial toxicity [7, 12]: mitochondrial toxicity has been reported

Source: patent publication US10329542B2, “HBV RNAse H purification and enzyme inhibitors” (Saint Louis University, priority 2012, dated 2019)
